Consider 17 compounds from patent publication EP1200406B1, “CYCLIC AMIDES AND IMIDES HAVING SELECTIVE ANTAGONIST ACTIVITY AT ALPHA-1D ADRENERGIC RECEPTOR” (RECORDATI INDUSTRIA CHIMICA E FARMACEUTICA S.p.a., priority 1999, dated 2001).

Like-named read-outs stand apart in the source and are kept apart here.

The assay has as its target T1, human recombinant α1d adrenoceptor (Homo sapiens, UniProt P25100).
T1 construct: expressed in transfected cells; host or cells: CHO cells (membranes)
T1 sequence (P25100 1-572): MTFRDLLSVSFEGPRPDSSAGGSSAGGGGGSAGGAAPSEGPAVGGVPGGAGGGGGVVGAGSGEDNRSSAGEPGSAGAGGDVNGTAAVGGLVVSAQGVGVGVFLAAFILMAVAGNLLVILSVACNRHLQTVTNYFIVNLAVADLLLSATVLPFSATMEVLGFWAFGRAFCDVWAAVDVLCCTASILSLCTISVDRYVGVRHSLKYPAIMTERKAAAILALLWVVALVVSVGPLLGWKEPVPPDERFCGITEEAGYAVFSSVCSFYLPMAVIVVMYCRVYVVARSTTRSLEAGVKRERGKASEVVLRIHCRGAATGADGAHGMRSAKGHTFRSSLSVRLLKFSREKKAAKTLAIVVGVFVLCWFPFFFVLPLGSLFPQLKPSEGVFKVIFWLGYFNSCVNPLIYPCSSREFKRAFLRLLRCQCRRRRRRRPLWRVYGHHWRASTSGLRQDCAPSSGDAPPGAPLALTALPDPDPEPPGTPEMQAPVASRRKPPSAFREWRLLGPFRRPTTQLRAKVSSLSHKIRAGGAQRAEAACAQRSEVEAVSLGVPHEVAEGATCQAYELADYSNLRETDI
The experiment in a line: Radioligand binding ([3H]prazosin) on membranes of CHO cells expressing cloned α1d adrenoceptor. The note with it: read-out: Affinity (Ki) α1d. As for the experimental part: The determination of affinity for cloned subtypes of human α1 adrenergic receptors was performed in membranes from CHO cells (chinese hamster ovary cells) transfected by electroporation with DNA expressing the genes encoding each α1-adrenoceptor subtype, namely α1a, α1b and α1d.. Cloning and stable expression of the human α1-adrenoceptor gene were performed as previously described (Testa et al., Pharmacol. Comm. 6, 79-86 (1995)). CHO cell membranes were incubated in […] Tris pH 7.4 with 0.2 nM [^3H]prazosin, in a final volume of 1.02 ml for 30 minutes at 25°C, in the absence or presence of competing drugs (1 pM-10 µM). Non-specific binding was determined in the presence of 10 µM phentolamine. Incubation was stopped by addition of ice-cold Tris buffer and rapid filtration through 0.2% polyethyleneimine pretreated Schleicher & Schuell GF52 filters. […] The HeLa cells were grown as monolayers in Dulbecco's modified Eagle's medium (DMEM), supplemented with 10% foetal calf serum and gentamicin (100 µg/ml), 5% CO2, at 37°C. The cells were detached from the growth flask at 95% confluence by a cell scraper and were lysed in ice-cold 5 mM Tris and 5-mM EDTA buffer (pH 7.4). The homogenates were centrifuged at 40000 x g x 20 minutes and the membranes were re-suspended in a small volume of ice-cold 5 mM Tris and 5-mM EDTA buffer (pH 7.4) and immediately frozen and stored at -70°C until use. On the experiment day, the cell membranes were re-suspended in a buffer containing 50 mM Tris (pH 7.4), 2.5 mM MgCl2, 10 µM pargyline (Fargin et al., Nature 335, 358-360 (1988)). […] The incubation was stopped by addition of ice-cold Tris buffer and rapid filtration through 0.2%-polyethyleneimine-pretreated Schleicher & Schuell filters. The inhibition of specific binding of the radioligands by the drugs was analysed to estimate the IC50 value by using the non-linear curve-fitting programme Allfit (De Lean et al., Am. J. Physiol. 235, E97-E102 (1978)). The IC50 value was converted to an affinity constant (Ki) by the equation of Cheng & Prusoff (Biochem. Pharmacol. 22, 3099-3108 (1973)). Data were expressed as mean of Ki.

Setting [1] is: human cloned receptor, CHO cell membranes, 0.2 nM [3H]prazosin.

In the case of `O=C1CC2(CCCC2)CC(=O)N1CCN1CCN(c2cc(I)ccc2Cl)CC1` [Example 10, 8-{2-[4-(2-Chloro-5-iodophenyl)-1-piperazinyl]-ethyl}-8-azaspiro[4.5]decane-7,9-dione], the Ki under setting [1] came to 15.3 nM.

Turning to `O=C1CCCC(=O)N1CCN1CCN(c2cc(Cl)ccc2Cl)CC1` [Example 2, 1-{2-[4-(2,5-Dichlorophenyl)-1-piperazinyl]-ethyl}-piperidinyl-2,6-dione], the Ki was 3.25 nM. Regarding `Cc1ccc(F)c(N2CCN(CCN3C(=O)CC4(CCCC4)CC3=O)CC2)c1` [Example 4, 8-{2-[4-(2-Fluoro-5-methylphenyl)-1-piperazinyl]-ethyl}-8-azaspiro[4.5]decane-7,9-dione], under setting [1], the Ki amounted to 2.38 nM. As to `O=C1CC2(C=CN1CCN1CCN(c3cc(Cl)ccc3Cl)CC1)CCCC2` [Example 20, 8-{2-[4-(2,5-Dichlorophenyl)-1-piperazinyl]-ethyl}-8-azaspiro[4.5]dec-9,10-en-7-one], the Ki is 1.43 nM. For the compound `Cc1ccc(C)c(N2CCN(CCN3C(=O)CC4(CCCC4)CC3=O)CC2)c1` [Example 5, 8-{2-[4-(2,5-Dimethylphenyl)-1-piperazinyl]-ethyl}-8-azaspiro[4.5]decane-7,9-dione], under setting [1], the inhibition constant (Ki) was found to be 10.1 nM. On the same count and under the same terms, then `N#Cc1ccc(Cl)cc1N1CCN(CCN2C(=O)CC3(CCCC3)CC2=O)CC1` [Example 8, 8-{2-[4-(5-Chloro-2-cyanophenyl)-1-piperazinyl]-ethyl}-8-azaspiro[4.5]decane-7,9-dione], with 0.2 nM.

With `O=C1CC2(CCCC2)CC(=O)N1CCN1CCC(c2cc(Cl)ccc2Cl)CC1` [Example 17, 8-{2-[4-(2,5-Dichlorophenyl)-1-piperidinyl]-ethyl}-8-azaspiro[4.5]decane-7,9-dione], the Ki under setting [1] was 1.5 nM.

`O=C1CC2(CCCC2)CC(=O)N1CCN1CCN(c2cc(Br)ccc2Br)CC1` [Example 7, 8-{2-[4-(2,5-Dibromophenyl)-1-piperazinyl]-ethyl}-8-azaspiro[4.5]decane-7,9-dione]: the Ki under setting [1] was determined as 3.72 nM.

As to `CCC1(C)CC(=O)N(CCN2CCN(c3cc(Cl)ccc3Cl)CC2)C(=O)C1` [Example 13, 1-{2-[4-(2,5-Dichlorophenyl)-1-piperazinyl]-ethyl}-4-ethyl-4-methylpiperidinyl-2,6-dione], the Ki under setting [1] turned out to be 1.23 nM. The same measure, in the same setting: then `O=C1CC2(CCCC2)CC(=O)N1CCN1CCN(c2cc(F)ccc2Cl)CC1` [Example 9, 8-{2-[4-(2-Chloro-5-fluorophenyl)-1-piperazinyl]-ethyl}-8-azaspiro[4.5]decane-7,9-dione], with 0.18 nM; and `O=C1CC2(CCCC2)CC(=O)N1CCN1CCN(c2cc(C(F)(F)F)ccc2F)CC1` [Example 6, 8-{2-[4-(2-Fluoro-5-trifluoromethylphenyl)-1-piperazinyl]-ethyl}-8-azaspiro[4.5]decane-7,9-dione], with 7.56 nM; and `CC(CN1CCN(c2cc(Cl)ccc2Cl)CC1)N1C(=O)CC2(CCCC2)CC1=O` (centres unmarked) [Example 16, 8-{2-[4-(2,5-Dichlorophenyl)-1-piperazinyl]-1-methylethyl}-8-azaspiro[4.5]decane-7,9-dione], with 0.41 nM.

For `CN(CCN1C(=O)CC2(CCCC2)CC1=O)CCN(C)c1cc(Cl)ccc1Cl` [Example 18, N-(2,5-Dichlorophenyl)-N'-{2-(7,9-dioxo-8-azaspiro[4.5]decane-8-yl)-ethyl}-N,N'-dimethyl-1,2-diaminoethane], under setting [1], the Ki worked out at 16.4 nM. The same measure, in the same setting: then `O=C1CC2(CCCC2)C(=O)N1CCN1CCN(c2cc(Cl)ccc2Cl)CC1` [Example 14, 2-{2-[4-(2,5-Dichlorophenyl)-1-piperazinyl]-ethyl}-2-azaspiro[4.4]nonane-1,3-dione], with 3.11 nM; and `O=C1CC2(CCCC2)CCN1CCN1CCN(c2cc(F)c(F)cc2F)CC1` [Example 24, 8-{2-[4-(2,4,5-Trifluorophenyl)-1-piperazinyl]-ethyl}-8-azaspiro[4.5]decane-7-one], with 0.31 nM; and `O=C1CC2(CCCCC2)CC(=O)N1CCN1CCN(c2cc(Cl)ccc2Cl)CC1` [Example 11, 3-{2-[4-(2,5-Dichlorophenyl)-1-piperazinyl]-ethyl}-3-azaspiro[5.5]undecane-2,4-dione], with 2.21 nM.

Consider `O=C1CC2(CCC2)CC(=O)N1CCN1CCN(c2cc(Cl)ccc2Cl)CC1` [Example 15, 7-{2-[4-(2,5-Dichlorophenyl)-1-piperazinyl]-ethyl}-7-azaspiro[3.5]nonane-6,8-dione], for which, under setting [1], the inhibitory constant (Ki) was 2.65 nM.

One may read the Ki as a measure of affinity in units of concentration, obtained from inhibition or displacement.
